{"source": "patent US12387828B2", "about": "“System and method for ranking options for medical treatments” (PRXCISION LLC, priority 2015, dated 2025)", "origin": "cited, not measured here", "key": {"[1]": {"settings": "model value, multiplied by (WT/70)"}}, "data": [{"smiles": "C[C@@H](O)[C@H]1C(=O)N2C(C(=O)O)=C(S[C@@H]3CN[C@H](C(=O)N(C)C)C3)[C@H](C)[C@H]12", "note": "[meropenem]", "values": [{"measurement": "CLt (total clearance)", "setting": "equation in CLcr (mL/min) and WT (kg)", "value": "(10.2+2.08×CLcr)×(WT/70)×0.06"}, {"measurement": "CLd (distributional clearance)", "setting": "[1]", "value": 18.6, "unit": "L/h"}, {"measurement": "Vc (volume of the central compartment)", "setting": "[1]", "value": 10.8, "unit": "L"}, {"measurement": "Vp (peripheral compartment volume)", "setting": "[1]", "value": 12.6, "unit": "L"}]}]}
